Here are results for 26 compounds from US20120015957A1, “PIPERAZINYL DERIVATIVES USEFUL AS MODULATORS OF THE NEUROPEPTIDE Y2 RECEPTOR” (priority 2007, published 2012).

As usually defined, the IC50 is the concentration that inhibits the measured activity by half.

Molecules are shown by their SMILES.

In the assay the target is T1, NPY Y2 receptor (Homo sapiens, UniProt P49146).
T1 construct: endogenous in cells; host or cells: KAN-Ts cells (membrane preparation)
T1 sequence (P49146 1-381): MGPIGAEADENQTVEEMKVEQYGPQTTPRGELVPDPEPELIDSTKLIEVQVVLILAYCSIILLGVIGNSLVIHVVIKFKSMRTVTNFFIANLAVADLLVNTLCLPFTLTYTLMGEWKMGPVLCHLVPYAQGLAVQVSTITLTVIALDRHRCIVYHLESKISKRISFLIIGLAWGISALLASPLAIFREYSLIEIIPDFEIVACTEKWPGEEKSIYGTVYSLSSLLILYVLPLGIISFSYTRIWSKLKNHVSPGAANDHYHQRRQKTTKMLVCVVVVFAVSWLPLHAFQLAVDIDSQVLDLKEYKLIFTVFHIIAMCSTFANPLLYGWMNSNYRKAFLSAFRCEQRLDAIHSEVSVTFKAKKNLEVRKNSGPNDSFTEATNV
Description: Neuropeptide Y2 radioligand binding assay ([125I]PYY, KAN-Ts cell membranes). The conditions noted are these: membranes of KAN-Ts cells endogenously expressing Y2 receptors; [125I]PYY 80 pM; 1 h at rt; read-out: IC50 (μM), NPY Y2 binding. The protocol: KAN-Ts endogenously expressing Y2 receptors were used for the radioligand binding assay. Cells were grown to confluence on 150 cm^2 tissue culture plates, washed with phosphate-buffered saline (PBS), and scraped into 50 mL tubes. After centrifugation, the supernatant was aspirated, and the pellets frozen and stored at −80° C. Thawed pellets were homogenized with a polytron tissue grinder for 15 sec in 20 mM Tris-HCl, 5 mM EDTA. The homogenate was centrifuged at 800×g for 5 min and the collected supernatant was recentrifuged at 25000×g for 25 min. The resulting pellet was resuspended in binding buffer (20 mM HEPES, 120 mM NaCl, 0.22 mM KH2PO4, 1.3 mM CaCl2, 0.8 mM MgSO4). Membranes were incubated with [^125I]PYY (80 pM) in the presence or absence of test compound for 1 h at rt. The reaction was stopped by filtration through GF/C filter plates pre-soaked in 0.3% polyethylenimine and subsequently washed with Tris 50 mM, 5 mM EDTA buffer. Plates were dried for 1 h in a 55° C. oven, scintillation fluid was added and the radioactivity was counted in a Packard TopCount. Specific binding to the NPY receptor subtypes was determined by radioactivity that was bound in the presence of […] NPY. Each binding experiment was repeated three to eight times, each in duplicate. IC50 values (i.e. concentration of unlabelled peptide or antagonist required to compete for 50% of specific binding to the radioligand) were determined using the GraphPad Prism software (GraphPad Software Inc., San Diego Calif.) with a fit to a sigmoidal dose response curve. Apparent K values were as K=IC50/(1+C/KD), where C is concentration of the radioligand.
On to `CC[C@H](C)c1nc(-c2ccc(N3CCN(C(C(=O)N(CC)CC)c4ccccc4)CC3)c(F)c2)no1` (stereo in doubt) [Compound 97, 2-{4-[4-(5-sec-Butyl-[1,2,4]oxadiazol-3-yl)-2-fluoro-phenyl]-piperazin-1-yl}-N,N-diethyl-2-phenyl-acetamide], for which the concentration for half-maximal inhibition (IC50) stood at 0.37 µM.

As for `CCc1nc(-c2ccc(N3CCN(C(C(=O)N(CC)CC)c4ccccc4)CC3)c(F)c2)no1` (centres unmarked) [Compound 3, N,N-Diethyl-2-{4-[4-(5-ethyl-[1,2,4]oxadiazol-3-yl)-2-fluoro-phenyl]-piperazin-1-yl}-2-phenyl-acetamide], the concentration for half-maximal inhibition (IC50) worked out at 0.24 µM.

With `CCCc1nc(-c2ccc(N3CCN(C(C(=O)N(CC)CC)c4ccccc4)CC3)c(F)c2)no1` (centres unmarked) [Compound 68, N,N-Diethyl-2-{4-[2-fluoro-4-(5-propyl-[1,2,4]oxadiazol-3-yl)-phenyl]-piperazin-1-yl}-2-phenyl-acetamide], the half-maximal inhibitory concentration (IC50) came to 0.52 µM.

In the case of `CCC(CC)c1nc(-c2ccc(N3CCN(C(C(=O)N(CC)CC)c4ccccc4)CC3)c(F)c2)no1` (centres unmarked) [Compound 70, N,N-Diethyl-2-(4-{4-[5-(1-ethyl-propyl)-[1,2,4]oxadiazol-3-yl]-2-fluoro-phenyl}-piperazin-1-yl)-2-phenyl-acetamide], the IC50 is 0.48 µM.

Regarding `CCc1noc(-c2ccc(N3CCN(C(C(=O)N(CC)CC)c4ccccc4)CC3)c(F)c2)n1` (centres unmarked) [Compound 71, N,N-Diethyl-2-{4-[4-(3-ethyl-[1,2,4]oxadiazol-5-yl)-2-fluoro-phenyl]-piperazin-1-yl}-2-phenyl-acetamide], the IC50 was 0.097 µM.

Take `CCN(CC)C(=O)C(c1ccccc1)N1CCN(c2ccc(-c3noc(C(C)(C)C)n3)cc2F)CC1` (centres unmarked) [Compound 75, 2-{4-[4-(5-tert-Butyl-[1,2,4]oxadiazol-3-yl)-2-fluoro-phenyl]-piperazin-1-yl}-N,N-diethyl-2-phenyl-acetamide]: the IC50 is 0.6 µM.

`CCN(CC)C(=O)C(c1ccccc1)N1CCN(c2ccc(-c3noc(CC(C)(C)C)n3)cc2F)CC1` (centres unmarked) [Compound 79, 2-(4-{4-[5-(2,2-Dimethyl-propyl)-[1,2,4]oxadiazol-3-yl]-2-fluoro-phenyl}-piperazin-1-yl)-N,N-diethyl-2-phenyl-acetamide]: the IC50 came to 6.3 µM.

As to `CCN(CC)C(=O)C(c1ccccc1)N1CCN(c2ccc(-c3nc(C(C)C)no3)cc2F)CC1` (centres unmarked) [Compound 80, N,N-Diethyl-2-{4-[2-fluoro-4-(3-isopropyl-[1,2,4]oxadiazol-5-yl)-phenyl]-piperazin-1-yl}-2-phenyl-acetamide], the half-inhibitory concentration (IC50) was determined as 0.041 µM.

As for `CCN(CC)C(=O)C(c1ccccc1)N1CCN(c2ccc(-c3noc(C4CC4)n3)cc2F)CC1` (centres unmarked) [Compound 88, 2-{4-[4-(5-Cyclopropyl-[1,2,4]oxadiazol-3-yl)-2-fluoro-phenyl}-piperazin-1-yl]-N,N-diethyl-2-phenyl-acetamide], the IC50 was found to be 0.27 µM.

Consider `CCN(CC)C(=O)C(c1ccccc1)N1CCN(c2ccc(-c3noc(C4CCC4)n3)cc2F)CC1` (centres unmarked) [Compound 89, 2-{4-[4-(5-Cyclobutyl-[1,2,4]oxadiazol-3-yl)-2-fluoro-phenyl]-piperazin-1-yl}-N,N-diethyl-2-phenyl-acetamide], for which the IC50 turned out to be 0.85 µM.

Turning to `CCN(CC)C(=O)C(c1ccccc1)N1CCN(c2ccc(-c3noc(CF)n3)cc2F)CC1` (centres unmarked) [Compound 105, N,N-Diethyl-2-{4-[2-fluoro-4-(5-fluoromethyl-[1,2,4]oxadiazol-3-yl)-phenyl]-piperazin-1-yl}-2-phenyl-acetamide], the IC50 turned out to be 0.16 µM.

For the compound `CCN(CC)C(=O)C(c1ccccc1)N1CCN(c2ccc(-c3noc(C(F)(F)F)n3)cc2F)CC1` (centres unmarked) [Compound 118, N,N-Diethyl-2-{4-[2-fluoro-4-(5-trifluoromethyl-[1,2,4]oxadiazol-3-yl)-phenyl]-piperazin-1-yl}-2-phenyl-acetamide], the 50% inhibitory concentration (IC50) was 0.18 µM.

On to `CCN(CC)C(=O)C(c1ccccc1)N1CCN(c2ccc(C3=N[C@H](C(=O)OC)CO3)cc2F)CC1` (some centres unmarked) [Compound 124, 2-{4-[4-(Diethylcarbamoyl-phenyl-methyl)-piperazin-1-yl]-3-fluorophenyl}-4,5-dihydro-oxazole-4-carboxylic acid methyl ester], for which the IC50 came out at 1 µM.

Take `CCN(CC)C(=O)C(c1ccccc1)N1CCN(c2ccc(-c3nc(C(=O)OC)co3)cc2F)CC1` (centres unmarked) [Compound 129, 2-{4-[4-(Diethylcarbamoyl-phenyl-methyl)-piperazin-1-yl]-3-fluorophenyl}-oxazole-4-carboxylic acid methyl ester]: the IC50 amounted to 1.9 µM.

For `CCOC(=O)c1nc(-c2ccc(N3CCN(C(C(=O)N(CC)CC)c4ccccc4)CC3)c(F)c2)no1` (centres unmarked) [Compound 130, 3-{4-[4-(Diethylcarbamoyl-phenyl-methyl)-piperazin-1-yl]-3-fluoro-phenyl}-[1,2,4]oxadiazole-5-carboxylic acid ethyl ester], the half-inhibitory concentration (IC50) was more than 10 µM.

As for `CCc1cnc(-c2ccc(N3CCN(C(C(=O)N(CC)CC)c4ccccc4)CC3)c(F)c2)o1` (centres unmarked) [Compound 133, N,N-Diethyl-2-{4-[4-(5-ethyl-oxazol-2-yl)-2-fluoro-phenyl]-piperazin-1-yl}-2-phenyl-acetamide], the half-inhibitory concentration (IC50) is 0.46 µM.

On to `CCN(CC)C(=O)C(c1ccccc1)N1CCN(c2ccc(-c3noc(C(N)=O)n3)cc2F)CC1` (centres unmarked) [Compound 144, 3-{4-[4-(Diethylcarbamoyl-phenyl-methyl)-piperazin-1-yl]-3-fluorophenyl}-[1,2,4]oxadiazole-5-carboxylic acid amide], for which the IC50 worked out at 1.1 µM.

Consider `CCN(CC)C(=O)C(c1ccccc1)N1CCN(c2ccc(-c3noc(C#N)n3)cc2F)CC1` (centres unmarked) [Compound 147, 2-{4-[4-(5-Cyano-[1,2,4]oxadiazol-3-yl)-2-fluoro-phenyl]-piperazin-1-yl}-N,N-diethyl-2-phenyl-acetamide], for which the IC50 amounted to 4.1 µM.

On to `CCN(CC)C(=O)C(c1ccccc1)N1CCN(c2ccc(-c3noc(/C(N)=N/O)n3)cc2F)CC1` (centres unmarked) [Compound 149, N,N-Diethyl-2-(4-{2-fluoro-4-[5-(N-hydroxycarbamimidoyl)-[1,2,4]oxadiazol-3-yl]-phenyl}-piperazin-1-yl)-2-phenyl-acetamide], for which the IC50 came to 0.99 µM.

Take `CCN(CC)C(=O)C(c1ccccc1)N1CCN(c2ccc(-c3nnc(C)o3)cc2F)CC1` (centres unmarked) [Compound 150, N,N-Diethyl-2-{4-[2-fluoro-4-(5-methyl-[1,3,4]oxadiazol-2-yl)-phenyl]-piperazin-1-yl}-2-phenyl-acetamide]: the IC50 stood at 0.42 µM.

On to `CCN(CC)C(=O)C(c1ccccc1)N1CCN(c2ccc(-c3noc(C(=O)O)n3)cc2F)CC1` (centres unmarked) [Compound 151, 3-{4-[4-(Diethylcarbamoyl-phenyl-methyl)-piperazin-1-yl]-3-fluorophenyl}-[1,2,4]oxadiazole-5-carboxylic acid], for which the IC50 is more than 10 µM.

Turning to `CCc1nnc(-c2ccc(N3CCN(C(C(=O)N(CC)CC)c4ccccc4)CC3)c(F)c2)o1` (centres unmarked) [Compound 152, N,N-Diethyl-2-{4-[4-(5-ethyl-[1,3,4]oxadiazol-2-yl)-2-fluoro-phenyl]-piperazin-1-yl}-2-phenyl-acetamide], the concentration for half-maximal inhibition (IC50) is 0.3 µM.

For the compound `CCN(CC)C(=O)C(c1ccccc1)N1CCN(c2ccc(-c3nnc(C(C)C)o3)cc2F)CC1` (centres unmarked) [Compound 154, N,N-Diethyl-2-{4-[2-fluoro-4-(5-isopropyl-[1,3,4]oxadiazol-2-yl)-phenyl]-piperazin-1-yl}-2-phenyl-acetamide], the IC50 turned out to be 0.22 µM.

In the case of `CCN(CC)C(=O)C(c1ccccc1)N1CCN(c2ccc(-c3ncon3)cc2F)CC1` (centres unmarked) [Compound 158, N,N-Diethyl-2-[4-(2-fluoro-4-[1,2,4]oxadiazol-3-yl-phenyl)-piperazin-1-yl]-2-phenyl-acetamide], the IC50 is 1.5 µM.

Take `CCN(CC)C(=O)C(c1ccccc1)N1CCN(c2ccc(-c3noc(=O)n3C)cc2F)CC1` (centres unmarked) [Compound 176, N,N-Diethyl-2-{4-[2-fluoro-4-(4-methyl-5-oxo-4,5-dihydro-[1,2,4]oxadiazol-3-yl)-phenyl]-piperazin-1-yl}-2-phenyl-acetamide]: the half-maximal inhibitory concentration (IC50) came out at 1.9 µM.

Turning to `CCN(CC)C(=O)C(c1ccccc1)N1CCN(c2ccc(-c3noc(SC)n3)cc2F)CC1` (centres unmarked) [Compound 177, N,N-Diethyl-2-{4-[2-fluoro-4-(5-methylsulfanyl-[1,2,4]oxadiazol-3-yl)-phenyl]-piperazin-1-yl}-2-phenyl-acetamide], the half-inhibitory concentration (IC50) was 0.51 µM.
